Results reported in patent EP4702986A1, “POLYPEPTIDE AND USE THEREOF” (Biocells (Beijing) Biotech Co., Ltd., priority 2023, dated 2024).
Entries after “also recorded” stand apart in the source; their conditions may differ. Read-outs that look alike come from different tables or passages of the source. Numbered stars: 1 amine (or outer) side, 2 acyl side, 3 side chain; on linkers, the order of the positions; unused ones are H or OH. Side chains are listed from the residue outwards. Peptide text beside a SMILES is read from it. * marks the point of attachment. X1 = C[C@H](NC(=O)[C@@H]1CCCN1C(=O)[C@@H](N)CSC1CC(=O)N(CCC(=O)*)C1=O)C(=O)N[C@@H](CCCCN)C(=O)O; γGlu = O=C(O)[C@H](CCC(=O)[*:2])N[*:1]; Fumaroyl = O=C(O)/C=C/C(=O)*; Lauroyl = CCCCCCCCCCCC(=O)*; AEEA = NCCOCCOCC(=O)O

Tests used:
male SD rats = conditions: one animal per row, observed 48 hours
mouse ETB receptor = target: T1, mouse ETB receptor (Mus musculus, UniProt P48302); assay: Determination of EC50s of polypeptides against mouse ETB receptor; type: cell-based; conditions: Table 9, mouse ETB receptor; read-out: DETAR Agonist Activity EC50
T1 construct: expressed in transfected cells
T1 sequence (P48302 27-442): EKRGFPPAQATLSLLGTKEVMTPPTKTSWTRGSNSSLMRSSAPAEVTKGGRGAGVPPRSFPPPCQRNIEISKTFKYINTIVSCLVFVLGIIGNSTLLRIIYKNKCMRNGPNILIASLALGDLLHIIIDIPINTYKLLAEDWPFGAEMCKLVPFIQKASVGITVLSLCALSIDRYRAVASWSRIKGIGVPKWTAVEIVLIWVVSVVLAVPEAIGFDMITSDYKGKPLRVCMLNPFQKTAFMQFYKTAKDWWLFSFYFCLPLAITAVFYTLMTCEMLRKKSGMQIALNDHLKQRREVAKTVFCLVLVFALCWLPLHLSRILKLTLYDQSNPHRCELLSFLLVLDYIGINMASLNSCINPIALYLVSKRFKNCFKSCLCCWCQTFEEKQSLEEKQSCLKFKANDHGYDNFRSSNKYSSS

CCCCCCCCCCCC(=O)N[C@@H](CCC(=O)NCCOCCOCC(=O)NCCCC[C@H](NC(=O)[C@H](Cc1c[nH]cn1)NC(=O)[C@H](C)NC(=O)[C@H](Cc1ccccc1)NC(=O)[C@H](Cc1ccc(O)cc1)NC(=O)[C@@H](NC(=O)[C@H](C)NC(=O)[C@H](CCC(=O)O)NC(=O)[C@H](CCC(=O)O)NC(=O)[C@H](CC(=O)O)NC(=O)/C=C/C(=O)O)C(C)C)C(=O)N[C@@H](CC(=O)O)C(=O)N[C@H](C(=O)N[C@H](C(=O)N[C@@H](Cc1c[nH]c2ccccc12)C(=O)O)[C@@H](C)CC)C(C)C)C(=O)O [BX229-Na] (Fumaroyl-DEEAVYFAHK([AEEA-γGlu-Lauroyl])DVIW-OH)
Observations of Animal Status (male SD rats; subcutaneous 120 µg/Kg): No obvious reaction observed within 24 hours
Observations of Animal Status (male SD rats; subcutaneous 240 µg/Kg): No obvious abnormal reaction observed within 48 hours
Observations of Animal Status (male SD rats; subcutaneous 480 µg/Kg): No obvious abnormal reaction observed within 48 hours
Observations of Animal Status (male SD rats; subcutaneous 960 µg/Kg): No significant reaction within 2 hours, died at 2 hours and 10 minutes; also recorded: No obvious abnormal reaction observed within 48 hours
EC50 (mouse ETB receptor): 9.05 nM

CC[C@H](C)[C@H](NC(=O)[C@H](CC(=O)O)NC(=O)[C@H](CCCCNC(=O)COCCOCCNC(=O)CCN1C(=O)CC(SC[C@H](N)C(=O)N2CCC[C@H]2C(=O)N[C@@H](C)C(=O)N[C@@H](CCCCN)C(=O)O)C1=O)NC(=O)[C@H](Cc1c[nH]cn1)NC(=O)[C@H](C)NC(=O)[C@H](Cc1ccccc1)NC(=O)[C@H](Cc1ccc(O)cc1)NC(=O)[C@@H](NC(=O)[C@H](C)NC(=O)[C@H](CCC(=O)O)NC(=O)[C@H](CCC(=O)O)NC(=O)[C@H](CC(=O)O)NC(=O)/C=C/C(=O)O)C(C)C)C(=O)N[C@H](C(=O)N[C@@H](Cc1c[nH]c2ccccc12)C(=O)O)[C@@H](C)CC (stereo partly drawn) [BX-95] (Fumaroyl-DEEAVYFAHK([AEEA-X1])DIIW-OH)
EC50 (mouse ETB receptor): 22.1 nM
